Data taken from PubChem BioAssay AID720677 (Sanford-Burnham Center for Chemical Genomics, 2013).
Active and inactive are the calls of the source.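 Rule for the calls: active = compounds whose IC50 is at or below a set limit; inactive = the rest.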

Target: Bcl-2-like protein 10 (Homo sapiens) (UniProt Q9HD36)
Experiment: Bcl-B inhibitors displacing Bim peptide, SAR follow-up, biochemical, fluorescence polarization, set 2 (AID 720677)
Details: GST-Bcl-B / FITC-Bim peptide fluorescence polarization displacement

Sequence of Bcl-2-like protein 10 (Homo sapiens) (Q9HD36 whole entry, looked up): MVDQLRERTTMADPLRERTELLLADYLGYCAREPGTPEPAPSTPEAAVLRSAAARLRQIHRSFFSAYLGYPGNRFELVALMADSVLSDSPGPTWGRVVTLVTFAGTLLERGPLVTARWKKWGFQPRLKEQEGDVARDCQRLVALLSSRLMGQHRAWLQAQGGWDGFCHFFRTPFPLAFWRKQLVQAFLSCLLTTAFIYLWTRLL

| SMILES | IC50 |
| --- | --- |
| COc1ccc(Cn2c(=O)c3c(n4nnnc24)-c2ccccc2CC32CCCC2)cc1 | 795 nM |
| O=c1c2c(n3cnnc3n1Cc1ccc(F)cc1)-c1cc(F)ccc1CC21CCCC1 | > 20000 nM (inactive) |
| COc1ccccc1Cn1c(=O)c2c(n3nnnc13)-c1ccccc1CC21CCCC1 | > 20000 nM (inactive) |
| COc1ccc(Cn2c(=O)c3c(n4cnnc24)-c2cc(F)ccc2CC32CCCC2)cc1 | 3430 nM |
| COc1ccc(Cn2c(=O)c3c(n4nnnc24)-c2cc(F)ccc2CC32CCCC2)cc1 | 1010 nM |
| O=c1c2c(n3nnnc3n1Cc1ccccc1Cl)-c1ccccc1CC21CCCC1 | > 20000 nM (inactive) |
| COc1cccc(Cn2c(=O)c3c(n4nnnc24)-c2ccccc2CC32CCCC2)c1 | 985 nM |
